Experiments:
Assay type in all cases: cell-based, human
OCI ovarian tumor lines = test: Panel of oncology drugs: viable cells by Alamar Blue, OCI versus ATCC ovarian tumor lines; conditions: 5000 cells/well, WIT-OC medium, serial dilutions, 72-144 hrs incubation
Method: In these experiments, ATCC ovarian tumor lines (SKOV3, OV90, TOV-1120 and A2780) and OCI ovarian tumor lines (FCI-P2p, OCI-P5x, OCI-P2a, OCI-C4p, OCI-P7a, OCI-05x, OCI-CSp, FCI-P1p, OCI-P9a1, OCI-P8p, OCI-P3a, OCI-P1a) were plated in WIT-OC medium (5000 cells/well) in 96 well plates. The next day serial dilutions of Taxol, Vincristine, U0126, PJ34, Adriamycin, AS703026, 5-fluorouracil, Cisplatin, PLX4720 and PJ34 were added. The number of viable cells was measured as 590/530 florescence via Alamar Blue after 72-144 hrs incubation, depending on drug. […] Thus, the methods described herein of analyzing sensitivity of a subject's cancerous tumor to an oncology drug and developing a personalized therapy for the subject can be used for any drug.

OCI and SOC cell lines = test: Drug sensitivity experiments, response compared between OCI and SOC lines in WIT-OC medium
Method: (§1) Drug sensitivity experiments: The relative sensitivities of OCI and SOC cell lines to chemotherapy drugs was measured by seeding an equal number of cells in six replicates in 96-well black-walled clear bottom Corning plates at 3000 cells/well, and allowing attachment in WIT-OC for 12 h. Both OCI and SOC cell lines were exposed to drugs in WIT-OC medium. The cell lines were cultured in the presence of drug or vehicle control for 96 h. The fraction of metabolically active cells after drug treatment was measured by incubation with 2:10 (v/v) CellTiter-Blue reagent (Promega Cat#G8081) in media for 2 h, and the reaction was stopped by addition of 3% SDS. Fluorescence was measured in a SpectraMax M5 plate reader (Molecular Devices, CA) using SoftMax software (555EX/585EM).

OCI lines in Cluster 2 = test: Taxol drug sensitivity of the subset of OCI lines in Cluster 2; conditions: WIT-OC medium; similar to SOC lines
Method: FIG. 2: Gene expression profiling and Taxol Response of ovarian cancer cell lines identifies two major classes. A) Taxol response of OCI and SOC cell lines in mRNA/RPPA (Reverse Phase Protein Analysis) Cluster 1 vs. Cluster 2. The OCI and SOC lines were plated in triplicates in WIT-OC medium (5000 cells/well) in 96 well plates. The next day 20 nM Taxol was added and metabolic activity was measured as 590/530 fluorescence via Alamar Blue after 5 days. OCI cell lines in mRNA/RPPA Cluster 1 (blue bars), SOC cell lines in Cluster 2 (red bars), OCI lines in Cluster 2 (white bars). The results are representative of more than three four different experiments. B) Proteins that are over-expressed in OCI mRNA/RPPA Cluster 1. […]
as §1, with “Both OCI and SOC cell lines were exposed to drugs in WIT-OC medium. The cell lines were cultured in the presence of drug or vehicle control for 96 h.” left out, “(555EX/585EM). […]” for “(555EX/585EM).”

[1] = system: OCI lines in mRNA/RPPA Cluster 1; test: Taxol drug sensitivity (metabolic activity / viability) of OCI lines in mRNA/RPPA Cluster 1 compared to SOC lines
Method: FIG. 2: Gene expression profiling and Taxol Response of ovarian cancer cell lines identifies two major classes. A) Taxol response of OCI and SOC cell lines in mRNA/RPPA (Reverse Phase Protein Analysis) Cluster 1 vs. Cluster 2. The OCI and SOC lines were plated in triplicates in WIT-OC medium (5000 cells/well) in 96 well plates. The next day 20 nM Taxol was added and metabolic activity was measured as 590/530 fluorescence via Alamar Blue after 5 days. OCI cell lines in mRNA/RPPA Cluster 1 (blue bars), SOC cell lines in Cluster 2 (red bars), OCI lines in Cluster 2 (white bars). The results are representative of more than three four different experiments. B) Proteins that are over-expressed in OCI mRNA/RPPA Cluster 1. […] The data are presented in matrix format in which rows represent cell lines and columns represent antibody probes for each protein. The red and green colors reflect relative high and low expression levels respectively. C) Hierarchical clustering of mRNA data from OCI and SOC lines. […]
as §1, with “Both OCI and SOC cell lines were exposed to drugs in WIT-OC medium. The cell lines were cultured in the presence of drug or vehicle control for 96 h.” left out
Drug sensitivity experiments: The relative sensitivities of OCI and SOC cell lines to Taxol was measured by seeding 3000 cells/well in six replicates in 96-well black-walled clear bottom Corning plates and allowing attachment in WIT-OC for 12 h. […] The fraction of metabolically active cells after drug treatment was measured by incubation with 2:10 (v/v) CellTiter-Blue reagent (Promega Cat#G8081) in media for 2 h, and the reaction was stopped by addition of 3% SDS. […]

CN(C)CC(=O)Nc1ccc2[nH]c(=O)c3ccccc3c2c1 [PJ34]
Resistance of OCI lines to inhibition of cell proliferation compared to standard (ATCC) cell lines (OCI ovarian tumor lines): more resistant

COc1cccc2c1C(=O)c1c(O)c3c(c(O)c1C2=O)C[C@@](O)(C(=O)CO)C[C@@H]3O[C@H]1C[C@H](N)[C@H](O)[C@H](C)O1 [Adriamycin]
Resistance of OCI lines to inhibition of cell proliferation compared to standard (ATCC) cell lines (OCI ovarian tumor lines): more resistant

O=c1[nH]cc(F)c(=O)[nH]1 [5-fluorouracil]
Resistance of OCI lines to inhibition of cell proliferation compared to standard (ATCC) cell lines (OCI ovarian tumor lines): more resistant

N.N.[Cl][Pt][Cl] [Cisplatin]
Difference in drug response between OCI and SOC lines (OCI and SOC cell lines): did not find a significant difference

N#CC(=C(/N)Sc1ccccc1N)/C(C#N)=C(\N)Sc1ccccc1N [U0126]
Resistance of OCI lines to inhibition of cell proliferation compared to standard (ATCC) cell lines (OCI ovarian tumor lines): more resistant

CC[C@]1(O)C[C@H]2CN(CCc3c([nH]c4ccccc34)[C@@](C(=O)OC)(c3cc4c(cc3OC)N(C=O)[C@H]3[C@@](O)(C(=O)OC)[C@H](OC(C)=O)[C@]5(CC)C=CCN6CC[C@]43[C@@H]65)C2)C1 [Vincristine]
Difference in drug response between OCI and SOC lines (OCI and SOC cell lines): similarly different

CC(=O)O[C@H]1C(=O)[C@@]2(C)[C@H]([C@H](OC(=O)c3ccccc3)[C@]3(O)C[C@H](OC(=O)[C@H](O)[C@@H](NC(=O)c4ccccc4)c4ccccc4)C(C)=C1C3(C)C)[C@]1(OC(C)=O)CO[C@@H]1C[C@@H]2O [Taxol]
Sensitivity to Taxol of OCI lines in Cluster 2 compared to OCI lines in Cluster 1 (OCI lines in Cluster 2): more sensitive | IC50 ([1]; Homo sapiens, OCI lines plated in WIT-OC medium): 10 to 100 nM | IC50 fold higher than the IC50 values in SOC lines in mRNA/RPPA Cluster 2 ([1]; OCI Cluster 1 vs SOC Cluster 2, WIT-OC medium): 5-10 fold | Sensitivity to Taxol of OCI lines in Cluster 1 relative to SOC lines in Cluster 2 ([1]; WIT-OC medium, confirmed with a full dose-response curve): less sensitive

From patent US20160102365A1, “ASSAYS, METHODS AND KITS FOR ANALYZING SENSITIVITY AND RESISTANCE TO ANTI-CANCER DRUGS, PREDICTING A CANCER PATIENT'S PROGNOSIS, AND PERSONALIZED TREATMENT STRATEGIES” (UNIVERSITY OF MIAMI, priority 2013, published 2016)
